Source: patent publication US20220298138A1, “ENZYME INHIBITORS” (KALVISTA PHARMACEUTICALS LIMITED, priority 2019, published 2022)

Molecular target: T1, Human Factor XIIa (Homo sapiens, UniProt P00748)
T1 construct: purchased Enzyme Research Laboratories
T1 sequence (P00748 373-615 limits assumed): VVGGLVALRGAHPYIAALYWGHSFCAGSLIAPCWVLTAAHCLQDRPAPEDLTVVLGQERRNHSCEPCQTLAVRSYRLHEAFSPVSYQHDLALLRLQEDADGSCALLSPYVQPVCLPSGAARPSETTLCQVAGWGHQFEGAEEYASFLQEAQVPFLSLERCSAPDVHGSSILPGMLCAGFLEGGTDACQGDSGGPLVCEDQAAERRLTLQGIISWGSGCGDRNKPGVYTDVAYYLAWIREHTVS
Assay: Factor XIIa inhibitory activity in vitro (fluorogenic substrate H-DPro-Phe-Arg-AFC)
Format: biochemical
Conditions: 25° C., class symbols, read-out: Human FXIIa IC50
Method: Determination of the % Inhibition for FXIIa
Human Factor XIIa (Enzyme Research Laboratories) was incubated at 25° C. with the fluorogenic substrate H-DPro-Phe-Arg-AFC and various concentrations of the test compound. Residual enzyme activity (initial rate of reaction) was determined by measuring the change in […] at 410 nm and the IC50 value for the test compound was determined.

Compound | IC50 [µM]
Cc1cc(C)c(C(=O)N[C@@H](Cc2ccc(F)c(F)c2)C(=O)NCc2ccc3c(N)nccc3c2)[nH]1 [Example 0.01] | 3 to 10
CC(C)N1CCCC[C@@H]1C(=O)N[C@@H](Cc1ccc(F)c(F)c1)C(=O)NCc1ccc2c(N)nccc2c1 [Example 0.02] | 0.1 to 0.279
Cn1cc(C(=O)N[C@@H](Cc2ccc(F)c(F)c2)C(=O)NCc2ccc3c(N)nccc3c2)cn1 [Example 0.03] | 10 to 40
Nc1nccc2cc(CNC(=O)[C@H](Cc3ccc(F)c(F)c3)NC(=O)c3ccccc3N3CCOCC3)ccc12 [Example 0.04] | 10 to 40
Nc1nccc2cc(CNC(=O)[C@H](Cc3ccc(F)c(F)c3)NC(=O)c3cccc(-n4cccn4)c3)ccc12 [Example 0.05] | 3 to 10
Cc1nc(C(=O)N[C@@H](Cc2ccc(F)c(F)c2)C(=O)NCc2ccc3c(N)nccc3c2)c(C)o1 [Example 0.06] | 10 to 40
CC(C)n1cc(C(=O)N[C@@H](Cc2ccc(F)c(F)c2)C(=O)NCc2ccc3c(N)nccc3c2)cn1 [Example 0.07] | 10 to 40
CN1CCN(c2cccc(C(=O)N[C@@H](Cc3ccc(F)c(F)c3)C(=O)NCc3ccc4c(N)nccc4c3)c2)CC1 [Example 0.08] | 3 to 10
Nc1nccc2cc(CNC(=O)[C@H](Cc3ccc(F)c(F)c3)NC(=O)c3cccc(-n4ccnc4)c3)ccc12 [Example 0.09] | 3 to 10
Nc1nccc2cc(CNC(=O)[C@H](Cc3ccc(F)c(F)c3)NC(=O)c3ccc(-n4ccnc4)nc3)ccc12 [Example 0.10] | 10 to 40
N#Cc1ccc(C(=O)N[C@@H](Cc2ccc(F)c(F)c2)C(=O)NCc2ccc3c(N)nccc3c2)nc1 [Example 0.11] | 10 to 40
COc1cncc(C(=O)N[C@@H](Cc2ccc(F)c(F)c2)C(=O)NCc2ccc3c(N)nccc3c2)c1 [Example 0.12] | 3 to 10
Nc1nccc2cc(CNC(=O)[C@H](Cc3ccc(F)c(F)c3)NC(=O)c3ccc[nH]c3=O)ccc12 [Example 0.13] | 3 to 10
Cc1cc(C(=O)N[C@@H](Cc2ccc(F)c(F)c2)C(=O)NCc2ccc3c(N)nccc3c2)n[nH]1 [Example 0.14] | 3 to 10
Nc1nccc2cc(CNC(=O)[C@H](Cc3ccc(F)c(F)c3)NC(=O)c3cccnn3)ccc12 [Example 0.15] | 3 to 10
Nc1nccc2cc(CNC(=O)[C@H](Cc3ccc(F)c(F)c3)NC(=O)c3ccnnc3)ccc12 [Example 0.16] | 3 to 10
Cn1ccc(C(=O)N[C@@H](Cc2ccc(F)c(F)c2)C(=O)NCc2ccc3c(N)nccc3c2)n1 [Example 0.17] | 10 to 40
Nc1nccc2cc(CNC(=O)[C@H](Cc3ccc(F)c(F)c3)NC(=O)c3ncccn3)ccc12 [Example 0.18] | 10 to 40
CN(C)[C@H](CCc1ccccc1)C(=O)N[C@@H](Cc1ccc(F)c(F)c1)C(=O)NCc1ccc2c(N)nccc2c1 [Example 0.19] | 10 to 40
Nc1nccc2cc(CNC(=O)[C@H](Cc3ccc(F)c(F)c3)NC(=O)c3cncnc3)ccc12 [Example 0.20] | 3 to 10
Cc1nocc1C(=O)N[C@@H](Cc1ccc(F)c(F)c1)C(=O)NCc1ccc2c(N)nccc2c1 [Example 0.21] | 3 to 10
Cc1cnc(C(=O)N[C@@H](Cc2ccc(F)c(F)c2)C(=O)NCc2ccc3c(N)nccc3c2)cn1 [Example 0.22] | 3 to 10
Nc1nccc2cc(CNC(=O)[C@H](Cc3ccc(F)c(F)c3)NC(=O)c3cccnc3)ccc12 [Example 0.23] | 10 to 40
Nc1nccc2cc(CNC(=O)[C@H](Cc3ccc(F)c(F)c3)NC(=O)CCCOCc3ccccc3)ccc12 [Example 0.24] | 10 to 40
N#Cc1cccc(C(=O)N[C@@H](Cc2ccc(F)c(F)c2)C(=O)NCc2ccc3c(N)nccc3c2)c1 [Example 0.25] | 3 to 10

Compound | IC50 [µM]
Cc1nc2ccncc2cc1C(=O)N[C@@H](Cc1ccc(F)c(F)c1)C(=O)NCc1ccc2c(N)nccc2c1 [Example 0.26] | 10 to 40
Nc1nccc2cc(CNC(=O)[C@H](Cc3ccc(F)c(F)c3)NC(=O)c3ccc(-c4cncnc4)cc3)ccc12 [Example 0.27] | 10 to 40
Nc1nccc2cc(CNC(=O)[C@H](Cc3ccc(F)c(F)c3)NC(=O)c3ccc4cnccc4c3)ccc12 [Example 0.28] | 10 to 40
Nc1nccc2cc(CNC(=O)[C@H](Cc3ccc(F)c(F)c3)NC(=O)c3ccn[nH]3)ccc12 [Example 0.29] | 3 to 10
Nc1nccc2cc(CNC(=O)[C@H](Cc3ccc(F)c(F)c3)NC(=O)c3ccno3)ccc12 [Example 0.30] | 10 to 40
Nc1nccc2cc(CNC(=O)[C@H](Cc3ccc(F)c(F)c3)NC(=O)c3ccc4ncccc4n3)ccc12 [Example 0.31] | 10 to 40
COc1cc(C(=O)N[C@@H](Cc2ccc(F)c(F)c2)C(=O)NCc2ccc3c(N)nccc3c2)on1 [Example 0.32] | 3 to 10
Nc1nccc2cc(CNC(=O)[C@H](Cc3ccc(F)c(F)c3)NC(=O)c3cscn3)ccc12 [Example 0.33] | 3 to 10
Nc1nccc2cc(CNC(=O)[C@H](Cc3ccc(F)c(F)c3)NC(=O)c3ccccc3)ccc12 [Example 0.34] | 10 to 40
Nc1nccc2cc(CNC(=O)[C@H](Cc3ccc(F)c(F)c3)NC(=O)c3ccncc3)ccc12 [Example 0.35] | 10 to 40
Cc1cc2ncc(C(=O)N[C@@H](Cc3ccc(F)c(F)c3)C(=O)NCc3ccc4c(N)nccc4c3)c(C)n2n1 [Example 0.36] | 3 to 10
Nc1nccc2cc(CNC(=O)[C@H](Cc3ccc(F)c(F)c3)NC(=O)c3cnc4n(c3=O)CCS4)ccc12 [Example 0.37] | 1 to 3
CC(C)n1nnc2cc(C(=O)N[C@@H](Cc3ccc(F)c(F)c3)C(=O)NCc3ccc4c(N)nccc4c3)ccc21 [Example 0.38] | 10 to 40
Nc1nccc2cc(CNC(=O)[C@H](Cc3ccc(F)c(F)c3)NC(=O)COCc3ccccc3)ccc12 [Example 0.39] | 10 to 40
Nc1nccc2cc(CNC(=O)[C@H](Cc3ccc(F)c(F)c3)NC(=O)c3ccc4ncsc4c3)ccc12 [Example 0.40] | 10 to 40
Nc1nccc2cc(CNC(=O)[C@H](Cc3ccc(F)c(F)c3)NC(=O)CCS(=O)(=O)c3ccccc3)ccc12 [Example 0.41] | 3 to 10
COc1ncccc1C(=O)N[C@@H](Cc1ccc(F)c(F)c1)C(=O)NCc1ccc2c(N)nccc2c1 [Example 0.42] | 10 to 40
CN1CCC(C(=O)N[C@@H](Cc2ccc(F)c(F)c2)C(=O)NCc2ccc3c(N)nccc3c2)CC1 [Example 0.43] | 3 to 10
Nc1nccc2cc(CNC(=O)[C@H](Cc3ccc(F)c(F)c3)NC(=O)C3=CCC(=O)NN3)ccc12 [Example 0.44] | 3 to 10
Nc1nccc2cc(CNC(=O)[C@H](Cc3ccc(F)c(F)c3)NC(=O)c3cccnc3N3CCOCC3)ccc12 [Example 0.45] | 10 to 40
Nc1nccc2cc(CNC(=O)[C@H](Cc3ccc(F)c(F)c3)NC(=O)CCc3ccccc3)ccc12 [Example 0.46] | 10 to 40
CS(=O)(=O)c1cccc(C(=O)N[C@@H](Cc2ccc(F)c(F)c2)C(=O)NCc2ccc3c(N)nccc3c2)c1 [Example 0.47] | 3 to 10
Nc1nccc2cc(CNC(=O)[C@H](Cc3ccc(F)c(F)c3)NC(=O)c3cc4ccccc4o3)ccc12 [Example 0.48] | 10 to 40
Nc1nccc2cc(CNC(=O)[C@H](Cc3ccc(F)c(F)c3)NC(=O)c3ccc(F)c(F)c3)ccc12 [Example 0.49] | 10 to 40
Cc1cccnc1C(=O)N[C@@H](Cc1ccc(F)c(F)c1)C(=O)NCc1ccc2c(N)nccc2c1 [Example 0.50] | 3 to 10
